# Where two headings read alike, the source gives them in different places.
# Tests used:
# Human opiate κ receptors [1] = molecular target: T1, Human opiate κ receptors (Homo sapiens, UniProt P41145); assay type: binding; set-up: expressed in transfected cells; host or cells: HEK-293 cell membranes
# Human opiate κ receptors [2] = molecular target: T1, Human opiate κ receptors; assay: κ opioid receptor functional assay, [35S]GTPγS binding (assay C); assay type: biochemical; settings: for activation at 1 µM: 0.5 h, read-out: % activation functional assay at 1 μM
# [3] = read-out: EC50 (nM) [35S]GTPγS binding
# T1 sequence (P41145 whole entry): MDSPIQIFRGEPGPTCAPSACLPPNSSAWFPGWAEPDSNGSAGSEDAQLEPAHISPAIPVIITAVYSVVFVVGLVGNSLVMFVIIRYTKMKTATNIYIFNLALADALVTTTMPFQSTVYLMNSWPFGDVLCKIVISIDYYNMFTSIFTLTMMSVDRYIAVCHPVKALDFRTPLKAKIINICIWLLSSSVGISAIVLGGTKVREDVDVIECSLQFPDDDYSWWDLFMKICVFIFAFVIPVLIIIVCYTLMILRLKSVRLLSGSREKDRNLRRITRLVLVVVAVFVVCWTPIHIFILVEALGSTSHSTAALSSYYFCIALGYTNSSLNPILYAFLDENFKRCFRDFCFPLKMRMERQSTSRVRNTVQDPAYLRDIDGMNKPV
SMILES,activation at 1 µM (Human opiate κ receptors [2]) [%],EC50 (Human opiate κ receptors [2]; GTPγS EC50 (nM)) [nM],also measured
Cl.NCC(=O)N1CCN(C(=O)Cc2ccc(Cl)c(Cl)c2)[C@@H]2[C@@H](N3CCCC3)CCC[C@@H]21 (racemic) [Example 44],–,–,% binding at 100 nM (Human opiate κ receptors [1]): 41%
"O=C(Cc1ccc(Cl)c(Cl)c1)N1CCN(Cc2cccnc2)C2CCCC(N3CCC(O)C3)C21 (mixture of isomers) [AC, reference compound]",–,–,activation (% of control) at 1 μM (Human opiate κ receptors [2]): 102 % of control; EC50 (Human opiate κ receptors [2]; EC50 (nM) [35S]GTPγS binding): 77 nM
COC(=O)N1CCN(C(=O)Cc2ccc(Cl)c(Cl)c2)[C@@H]2[C@@H](N3CCCC3)CCC[C@@H]21 (racemic) [Example 1],109,–,activation (% of control) at 1 μM (Human opiate κ receptors [2]): 109 % of control
COC(=O)N1CCN(C(=O)Cc2ccc(Cl)c(Cl)c2)C2C(N3CCC(O)CC3)CCCC21 (racemic) [Example 88],–,–,% activation functional assay at 1 μM (Human opiate κ receptors [2]): 107%; EC50 (Human opiate κ receptors [2]; read-out: GTPγS EC50): < 10 nM
CNC(=O)N1CCN(C(=O)Cc2ccc(Cl)c(Cl)c2)C2C(N3CCCC3)CCCC21 (racemic) [Example 62],104,10 to 100,–
O=C(N1CCCC1)N1CCN(C(=O)Cc2ccc(Cl)c(Cl)c2)C2C(N3CCCC3)CCCC21 (racemic) [Example 38],109,10 to 100,–
NC(=O)c1ccc(C(=O)N2CCN(C(=O)Cc3ccc(Cl)c(Cl)c3)C3C(N4CCCC4)CCCC32)cc1 (racemic) [Example 87],109,–,–
"O=C(Cc1ccc(Cl)c(Cl)c1)N1CCN(Cc2ccccc2)[C@@H]2CCC[C@H](N3CCCC3)[C@H]21 (racemic) [H, reference compound]",–,–,activation (% of control) at 1 μM (Human opiate κ receptors [2]): 97 % of control; EC50 (Human opiate κ receptors [2]; EC50 (nM) [35S]GTPγS binding): 29 nM
COC(=O)N1CCN(C(=O)Cc2ccc(F)c(Cl)c2)C2C(N3CCC(O)C3)CCCC21.Cl (stereo not shown) [Example 110],–,–,% activation functional assay at 1 μM (Human opiate κ receptors [2]): 92%; EC50 (Human opiate κ receptors [2]; read-out: GTPγS EC50): 10 to 100 nM
"O=C(O)CC(=O)N1CCN(C(=O)Cc2ccc(Cl)c(Cl)c2)C2C(N3CCC(O)C3)CCCC21 (mixture of isomers) [T, reference compound]",–,–,activation (% of control) at 1 μM (Human opiate κ receptors [2]): 11 % of control; activation of the kappa opioid receptors at 1 μM (Human opiate κ receptors [2]): no or little activation; EC50 (Human opiate κ receptors [2]; EC50 (nM) [35S]GTPγS binding): > 1000 nM
COC(=O)N1CCN(C(=O)Cc2ccc(Cl)c(Cl)c2)C2C(N3CC=CCC3)CCCC21 (racemic) [Example 12],96,10 to 100,–
COC(=O)N1CCN(C(=O)Cc2ccc(C(F)(F)F)c(Cl)c2)C2C(N3CCCC3)CCCC21 (racemic) [Example 50],118,< 10,–
"O=C(O)CC(=O)N1CCN(C(=O)Cc2ccc(Cl)c(Cl)c2)C2C(N3CCCC3)CCCC21 (racemic) [AD, reference compound]",–,–,activation (% of control) at 1 μM (Human opiate κ receptors [2]): 22 % of control; activation of the kappa opioid receptors at 1 μM (Human opiate κ receptors [2]): no or little activation; EC50 (Human opiate κ receptors [2]; [3]): > 1000 nM; EC50 (Human opiate κ receptors [2]; read-out: EC50 kappa opioid receptor activation): > 1000 nM
CS(=O)(=O)N1CCN(C(=O)Cc2ccc(Cl)c(Cl)c2)C2C(N3CCCC3)CCCC21 (racemic) [Example 23],91,< 10,–
COC(=O)N1CCN(C(=O)Cc2ccc(C(F)(F)F)c(Cl)c2)[C@@H]2[C@@H](N3CCCC3)CCC[C@@H]21 [Example 93],101,< 10,–
COC(=O)N1CCN(C(=O)Cc2ccc(F)c(F)c2)C2C(N3CCCC3)CCCC21 (racemic) [Example 18],112,< 10,–
COC(=O)N1CCN(C(=O)Cc2ccc(Cl)cc2)[C@@H]2[C@@H](N3CC[C@H](O)C3)CCC[C@@H]21 [Example 140],103,10 to 100,–
O=C(O)CNC(=O)N1CCN(C(=O)Cc2ccc(Cl)c(Cl)c2)C2C(N3CCCC3)CCCC21 (racemic) [Example 77],98,10 to 100,–
"COC(=O)CC(=O)N1CCN(C(=O)Cc2ccc(Cl)c(Cl)c2)C2C(N3CCC(O)C3)CCCC21 (stereo not shown) [U, reference compound]",–,–,activation (% of control) at 1 μM (Human opiate κ receptors [2]): 86 % of control; EC50 (Human opiate κ receptors [2]; [3]): 170 nM
COC(=O)N1CCN(C(=O)Cc2ccc(OC)c(F)c2)C2C(N3CCCC3)CCCC21 (racemic) [Example 22],78,100 to 1000,–
O=C(c1ncccn1)N1CCN(C(=O)Cc2ccc(Cl)c(Cl)c2)C2C(N3CCCC3)CCCC21 (racemic) [Example 83],–,–,% activation functional assay at 1 μM (Human opiate κ receptors [2]): 111%
CN(C)S(=O)(=O)N1CCN(C(=O)Cc2ccc(Cl)c(Cl)c2)C2C(N3CCCC3)CCCC21 (racemic) [Example 35],108,< 10,–
COC(=O)COC(=O)N1CCN(C(=O)Cc2ccc(Cl)c(Cl)c2)[C@@H]2[C@@H](N3CCCC3)CCC[C@@H]21 [Example 101],99,< 10,–
COC(=O)COC(=O)N1CCN(C(=O)Cc2ccc(Cl)c(Cl)c2)[C@@H]2[C@@H](N3CC[C@@H](O)C3)CCC[C@@H]21 [Example 105],116,< 10,–
NC(=O)C(=O)N1CCN(C(=O)Cc2ccc(Cl)c(Cl)c2)C2C(N3CCCC3)CCCC21 (racemic) [Example 66],100,10 to 100,–
COC(=O)N1CCN(C(=O)Cc2ccc(F)c(F)c2)[C@@H]2[C@@H](N3CC[C@H](O)C3)CCC[C@@H]21 [Example 138],108,10 to 100,–

SMILES,activation at 1 µM (Human opiate κ receptors [2]) [%],EC50 (Human opiate κ receptors [2]; GTPγS EC50 (nM)) [nM],also measured
CCNC(=O)N1CCN(C(=O)Cc2ccc(Cl)c(Cl)c2)C2C(N3CCCC3)CCCC21 (racemic) [Example 40],96,< 10,–
COC(=O)N1CCN(C(=O)Cc2ccc(Cl)c(F)c2)C2C(N3CCCC3)CCCC21 (racemic) [Example 19],100,< 10,–
O=C(Cc1ccc(Cl)c(Cl)c1)N1CCN(Cc2ccccc2)[C@H]2CCC[C@H](N3CCCC3)[C@H]21 (racemic) [Example 15],89,< 10,activation (% of control) at 1 μM (Human opiate κ receptors [2]): 89 % of control; EC50 (Human opiate κ receptors [2]; EC50 (nM) [35S]GTPγS binding): 7.39 nM
O=C(c1ccccn1)N1CCN(C(=O)Cc2ccc(Cl)c(Cl)c2)C2C(N3CCCC3)CCCC21 (racemic) [Example 32],88,–,–
O=C(c1ccccc1)N1CCN(C(=O)Cc2ccc(Cl)c(Cl)c2)C2C(N3CCCC3)CCCC21 (racemic) [Example 31],93,–,activation (% of control) at 1 μM (Human opiate κ receptors [2]): 93 % of control
COC(=O)CNC(=O)N1CCN(C(=O)Cc2ccc(Cl)c(Cl)c2)C2C(N3CCCC3)CCCC21 (racemic) [Example 75],113,< 10,–
COC(=O)N1CCN(C(=O)Cc2ccc(C(F)(F)F)c(F)c2)[C@@H]2[C@@H](N3CC[C@H](O)C3)CCC[C@@H]21 [Example 141],99,< 10,–
CC(C)(C)OC(=O)N1CCN(C(=O)Cc2ccc(Cl)c(Cl)c2)[C@@H]2[C@@H](N3CCCC3)CCC[C@@H]21 (racemic) [Example 24],105,< 10,–
CN(C)C(=O)N1CCN(C(=O)Cc2ccc(Cl)c(Cl)c2)C2C(N3CCCC3)CCCC21 (racemic) [Example 34],107,10 to 100,–
CC(C)C(=O)N1CCN(C(=O)Cc2ccc(Cl)c(Cl)c2)C2C(N3CCCC3)CCCC21 (racemic) [Example 26],119,< 10,–
O=C(Cc1ccc(Cl)c(Cl)c1)N1CCN(C(=O)NCc2ccccc2)[C@H]2CCC[C@H](N3CCCC3)[C@H]21 [Example 100],105,< 10,–
COC(=O)N1CCN(C(=O)Cc2cccc(Cl)c2)[C@@H]2[C@@H](N3CC[C@H](O)C3)CCC[C@@H]21 [Example 143],102,10 to 100,–
"COC(=O)N1CCN(C(=O)Cc2ccc(Cl)c(Cl)c2)[C@@H]2[C@H]1CCC[C@@H]2N1CCCC1 (racemic) [Reference compound E, reference compound]",68,–,–
O=C(C1CCNC1)N1CCN(C(=O)Cc2ccc(Cl)c(Cl)c2)C2C(N3CCCC3)CCCC21 (racemic) [Example 78],64,100 to 1000,–
COC(=O)N1CCN(C(=O)Cc2ccc(C(F)(F)F)cc2)[C@@H]2[C@@H](N3CC[C@H](O)C3)CCC[C@@H]21 [Example 139],104,< 10,–
COC(=O)N1CCN(C(=O)Cc2cccc(C(F)(F)F)c2)[C@@H]2[C@@H](N3CC[C@H](O)C3)CCC[C@@H]21 [Example 142],106,10 to 100,–
CC(C)NC(=O)N1CCN(C(=O)Cc2ccc(Cl)c(F)c2)C2C(N3CCC(O)C3)CCCC21.Cl (stereo not shown) [Example 119],–,–,% activation functional assay at 1 μM (Human opiate κ receptors [2]): 102%; EC50 (Human opiate κ receptors [2]; read-out: GTPγS EC50): 10 to 100 nM
"CCCCN1CCN(C(=O)Cc2ccc(Cl)c(Cl)c2)C2C(N3CCCC3)CCCC21 (stereo not shown) [W, reference compound]",–,–,activation (% of control) at 1 μM (Human opiate κ receptors [2]): 113 % of control; EC50 (Human opiate κ receptors [2]; [3]): 12 nM
COC(=O)N1CCN(C(=O)Cc2ccc(F)c(OC)c2)C2C(N3CCCC3)CCCC21 (racemic) [Example 21],103,10 to 100,–
O=C(Nc1ccccc1)N1CCN(C(=O)Cc2ccc(Cl)c(Cl)c2)C2C(N3CCCC3)CCCC21 (racemic) [Example 43],107,< 10,–
CC(C)NC(=O)N1CCN(C(=O)Cc2ccc(Cl)c(Cl)c2)C2C(N3CCC(O)C3)CCCC21.Cl (stereo not shown) [Example 120],–,–,% activation functional assay at 1 μM (Human opiate κ receptors [2]): 100%; EC50 (Human opiate κ receptors [2]; read-out: GTPγS EC50): < 10 nM
"COC(=O)N1CCN(C(=O)Cc2ccc(Cl)c(Cl)c2)C2C(N3CCC(O)C3)CCCC21 (stereo not shown) [S, reference compound]",–,–,activation (% of control) at 1 μM (Human opiate κ receptors [2]; 1 µM): 91 % of control; EC50 (Human opiate κ receptors [2]; [3]): 85 nM
COC(=O)N1CCN(C(=O)Cc2ccc(Cl)c(Cl)c2)[C@@H]2[C@@H](N(C)C)CCC[C@@H]21 [Example 90],96,< 10,–
CCC(=O)N1CCN(C(=O)Cc2ccc(Cl)c(Cl)c2)C2C(N3CCCC3)CCCC21 (racemic) [Example 25],102,< 10,activation (% of control) at 1 μM (Human opiate κ receptors [2]): 102 % of control; EC50 (Human opiate κ receptors [2]; EC50 (nM) [35S]GTPγS binding): 2.55 nM
"O=C(c1ccccc1)N1CCN(C(=O)Cc2ccc(Cl)c(Cl)c2)C2C(N3CCC(O)C3)CCCC21 (stereo not shown) [R, reference compound]",–,–,activation (% of control) at 1 μM (Human opiate κ receptors [2]): 63 % of control

# Source: patent publication US20160122307A1, “PERHYDROQUINOXALINE DERIVATIVES” (DR. AUGUST WOLFF GMBH & CO. KG ARZNEIMITTEL, priority 2013, published 2016)
